Some test systems named below: 786-0; A549; CAKI-1; CCRF-CEM; DU-145; HCT-116; KM12; M14; MDA-MB-435; NCI-H226; NCI-H460; OVCAR-3; SF-539; SNB-19; SR; SW-620; U-251; UACC-257; TK-10; Malme-3M.
Holding throughout (experiment): inhibition of tumour cell growth, NCI panel, 48 h

From ChEMBL document CHEMBL1201862, “PubChem BioAssay data set” (2004) come the findings set out here.

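Following 48 hours of exposure in 96-well plates, responses at five concentrations were used to interpolate endpoints linearly. Here, GI50 denotes the concentration required for 50% inhibition of growth.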 The source made the active and inactive calls. No stated cut-off is given here; in the data, active = GI50 up to about 1.1 µM and inactive = higher.

Take `CSC12c3cc(C)n(-c4ccc([N+](=O)[O-])cc4)c3CC(C)(C)CN1C(=O)C2Oc1ccccc1` (stereo unspecified): the GI50 with 786-0 is > 100 µM (inactive); with A549 it was 46.1 µM (inactive); in the experiment with CAKI-1, 18.5 µM (inactive); in the experiment with CCRF-CEM it was > 100 µM (inactive); in the experiment on DU-145 it was > 100 µM (inactive); with HCT-116, 54.2 µM (inactive). Further, the GI50 in the experiment with KM12 was 1.73 µM (inactive); in the experiment with M14, > 100 µM (inactive); with MDA-MB-435 it was 19.8 µM (inactive); with NCI-H226, > 100 µM (inactive); with NCI-H460, 71.9 µM (inactive); with OVCAR-3, > 100 µM (inactive). For the same compound, the GI50 is > 100 µM (inactive) with SF-539; 80.9 µM (inactive) with SNB-19; > 100 µM (inactive) in the experiment on SR; > 100 µM (inactive) in the experiment with SW-620; > 100 µM (inactive) with U-251; 70 µM (inactive) in the experiment on UACC-257.
On to `COc1ccc(C2=CC(C(C)=C(C(N)=O)C(N)=O)C=C(c3ccc(Br)cc3)C2)c(OC)c1` (stereo unspecified), for which the GI50 in the experiment with 786-0, in the experiment with A549, with CAKI-1, with CCRF-CEM, in the experiment with DU-145 and in the experiment with HCT-116 was > 100 µM (inactive) throughout. For the same compound, the GI50 with KM12, in the experiment with M14, with MDA-MB-435, in the experiment with NCI-H226, in the experiment with NCI-H460 and with OVCAR-3 was > 100 µM (inactive) each time. Also, the GI50 with SNB-19, with SR, in the experiment on SW-620, in the experiment on TK-10, in the experiment with U-251 and in the experiment on UACC-257 was > 100 µM (inactive) in each case.
For the compound `O=C(c1ccccc1)N1CCC(CC2(c3cc4ccccc4[nH]3)OCCO2)CC1`, the GI50 is 17.8 µM (inactive) with 786-0; 68.5 µM (inactive) in the experiment on A549; > 100 µM (inactive) in the experiment with CAKI-1; 29.6 µM (inactive) with CCRF-CEM; > 100 µM (inactive) with DU-145; 29.3 µM (inactive) in the experiment with HCT-116. The GI50 in the experiment on KM12 is 34.2 µM (inactive); with M14 it was 18.5 µM (inactive); in the experiment on MDA-MB-435, 20.6 µM (inactive); with NCI-H226, 32.7 µM (inactive); with NCI-H460, 35.9 µM (inactive); with OVCAR-3, > 100 µM (inactive). In addition, the GI50 in the experiment with SF-539 was 37.7 µM (inactive); with SNB-19, 67.9 µM (inactive); in the experiment with SR, 33 µM (inactive); in the experiment on SW-620, 19.5 µM (inactive); in the experiment on TK-10, 28.3 µM (inactive); in the experiment with U-251, 34.8 µM (inactive). Further, in the experiment on UACC-257, the GI50 was 27.5 µM (inactive).
Turning to `C[C@@H]1C[C@H]2OC(=O)[C@@]3(C)CCC[C@@](C)([C@@H]23)[C@@]1(O)CCc1ccoc1`, the GI50 with 786-0 is > 100 µM (inactive); in the experiment on A549 it was > 100 µM (inactive); in the experiment with CAKI-1, > 100 µM (inactive); in the experiment on CCRF-CEM, 74.5 µM (inactive); with DU-145 it was > 100 µM (inactive); in the experiment with HCT-116, > 87.7 µM (inactive). Also, the GI50 is > 100 µM (inactive) with KM12; > 100 µM (inactive) in the experiment on M14; > 100 µM (inactive) in the experiment with MDA-MB-435; > 61.2 µM (inactive) in the experiment with NCI-H226; 56.9 µM (inactive) with NCI-H460; > 100 µM (inactive) with OVCAR-3. In addition, the GI50 with SF-539 was > 100 µM (inactive); with SNB-19 it was > 100 µM (inactive); in the experiment on SR it was 44.5 µM (inactive); with SW-620, > 100 µM (inactive); with TK-10, > 100 µM (inactive); in the experiment with U-251, > 100 µM (inactive). Also, in the experiment on UACC-257, the GI50 is > 95.7 µM (inactive).
Consider `CC1(C)CC[C@]2(C(=O)O)CC[C@]3(C)C(=CC[C@@H]4[C@@]5(C)C[C@H](O)[C@H](O)[C@@](C)(CO)C5=CC[C@]43C)[C@@H]2C1`, for which the GI50 in the experiment on 786-0 was 55.2 µM (inactive); in the experiment on A549, 28.8 µM (inactive); with CAKI-1 it was 55 µM (inactive); in the experiment on CCRF-CEM, > 100 µM (inactive); with DU-145 it was 39.6 µM (inactive); in the experiment with HCT-116 it was 32.5 µM (inactive). Further, the GI50 in the experiment on KM12 is 21.4 µM (inactive); with M14, > 100 µM (inactive); with MDA-MB-435, > 100 µM (inactive); in the experiment with Malme-3M, > 100 µM (inactive); in the experiment on NCI-H460, 21.3 µM (inactive); in the experiment on OVCAR-3 it was > 100 µM (inactive). In addition, the GI50 in the experiment with SF-539 was > 100 µM (inactive); in the experiment with SNB-19, 42.7 µM (inactive); with SR, > 100 µM (inactive); in the experiment on SW-620 it was > 100 µM (inactive); in the experiment on TK-10, > 100 µM (inactive); in the experiment on U-251, 61.7 µM (inactive). For the same compound, in the experiment on UACC-257, the GI50 is > 100 µM (inactive).
Turning to `COC(=O)/C=c1/c2ccccc2n2nc3ccccc3c12`, the GI50 is 27.6 µM (inactive) with 786-0; 65.9 µM (inactive) with A549; 63 µM (inactive) in the experiment with CAKI-1; 11.4 µM (inactive) in the experiment on CCRF-CEM; > 100 µM (inactive) in the experiment with DU-145; 22.8 µM (inactive) in the experiment on HCT-116. Further, the GI50 in the experiment on KM12 was 27.5 µM (inactive); with M14 it was > 100 µM (inactive); with MDA-MB-435 it was 33 µM (inactive); with Malme-3M it was 99.1 µM (inactive); with NCI-H460 it was 43.9 µM (inactive); in the experiment on OVCAR-3, > 100 µM (inactive). For the same compound, the GI50 in the experiment with SF-539 is 26.6 µM (inactive); with SNB-19, 82.4 µM (inactive); in the experiment on SR it was 4.03 µM (inactive); with SW-620 it was 65 µM (inactive); with TK-10 it was 31.6 µM (inactive); in the experiment on U-251, 69 µM (inactive). Further, in the experiment with UACC-257, the GI50 is 80.9 µM (inactive).
As for `OC[C@@H](O)[C@H](O)[C@H](O)[C@@H](O)C1SCCCS1`, the GI50 in the experiment with 786-0, in the experiment on A549, with CAKI-1, with DU-145, in the experiment on HCT-116 and in the experiment on KM12 was > 100 µM (inactive) in each case. The GI50 in the experiment on M14, in the experiment on MDA-MB-435, with NCI-H226, in the experiment on NCI-H460, in the experiment with OVCAR-3 and in the experiment with SF-539 was > 100 µM (inactive) each time. The GI50 in the experiment on SNB-19 was > 100 µM (inactive); in the experiment with SR it was 63.8 µM (inactive); in the experiment with SW-620, > 100 µM (inactive); in the experiment on TK-10, > 100 µM (inactive); in the experiment on U-251, > 100 µM (inactive); with UACC-257, > 100 µM (inactive).
With `Cc1ccc(-c2cc(C(F)(F)F)nn2-c2ccc(S(N)(=O)=O)cc2)cc1` [CELECOXIB], the GI50 was 37.1 µM (inactive) in the experiment on 786-0; 14.4 µM (inactive) in the experiment on A549; 19.6 µM (inactive) in the experiment on CAKI-1; 14 µM (inactive) in the experiment with CCRF-CEM; 16.3 µM (inactive) in the experiment on DU-145; 55 µM (inactive) with HCT-116. Besides, the GI50 was 15.1 µM (inactive) in the experiment with KM12; 67.9 µM (inactive) in the experiment with M14; 17.5 µM (inactive) in the experiment with MDA-MB-435; 18.6 µM (inactive) with Malme-3M; 15.8 µM (inactive) in the experiment on NCI-H460; 17.6 µM (inactive) in the experiment with OVCAR-3. In addition, the GI50 in the experiment on SF-539 was 18.1 µM (inactive); in the experiment on SNB-19, 18 µM (inactive); in the experiment with SR it was 16.1 µM (inactive); in the experiment with SW-620 it was 16.9 µM (inactive); in the experiment with TK-10 it was 18.8 µM (inactive); in the experiment with U-251, 16.1 µM (inactive). Besides, the GI50 with UACC-257 is 19.7 µM (inactive).
As for `Oc1ccc(/C=C/c2ccc3cccc(O)c3n2)cc1O`, the GI50 with 786-0 is 3.24 µM (inactive); in the experiment on A549 it was 4.23 µM (inactive); in the experiment with CAKI-1 it was 4.98 µM (inactive); with CCRF-CEM, 0.759 µM (active); in the experiment with DU-145, 2.79 µM (inactive); with HCT-116, 3.77 µM (inactive). Also, the GI50 is 5.45 µM (inactive) with KM12; 2.69 µM (inactive) in the experiment with M14; 5.9 µM (inactive) with MDA-MB-435; 3.11 µM (inactive) in the experiment with NCI-H460; 10.9 µM (inactive) with OVCAR-3; 3.13 µM (inactive) with SF-539. Moreover, the GI50 in the experiment with SNB-19 was 5.02 µM (inactive); in the experiment on SR, 3.22 µM (inactive); in the experiment on SW-620, 4.24 µM (inactive); in the experiment on TK-10, 9.31 µM (inactive); in the experiment on U-251, 4.2 µM (inactive); with UACC-257, 10.5 µM (inactive).
`[N-]=[N+]=Nc1c(C=O)c(=O)n(-c2ccccc2)c2ccccc12`: the GI50 in the experiment with 786-0 is 18.5 µM (inactive); with A549, 39.3 µM (inactive); in the experiment with CAKI-1 it was 14 µM (inactive); in the experiment with CCRF-CEM, 3.09 µM (inactive); in the experiment with DU-145, 25.5 µM (inactive); in the experiment on HCT-116, > 10 µM (inactive). Moreover, the GI50 was 54.5 µM (inactive) in the experiment with KM12; 18 µM (inactive) with M14; 18.5 µM (inactive) with MDA-MB-435; 15.6 µM (inactive) in the experiment on Malme-3M; 29.6 µM (inactive) in the experiment on NCI-H460; 16.1 µM (inactive) in the experiment with OVCAR-3. In addition, the GI50 is 73.5 µM (inactive) in the experiment on SF-539; 57 µM (inactive) with SNB-19; 6.64 µM (inactive) in the experiment with SR; 2.51 µM (inactive) with SW-620; 19.5 µM (inactive) with TK-10; 28.6 µM (inactive) in the experiment with U-251. For the same compound, the GI50 with UACC-257 is 22.9 µM (inactive).
